Assay results published in US12304916B2, “Thienopyridinyl and thiazolopyridinyl compounds useful as IRAK4 inhibitors” (BRISTOL-MYERS SQUIBB COMPANY, priority 2019, dated 2025).

The compounds below were run against IRAK4 (Homo sapiens (Human), UniProt Q9NWZ3) (assay: IRAK4 Inhibition Assay). Conditions: ATP 500 μM; IRAK4 0.6 nM; 60 min at room temperature.
Format: biochemical
Experimental: The assays were performed in U-bottom 384-well plates. The final assay volume was 30 μL prepared from 15 μL additions of enzyme and substrates (fluoresceinated peptide and ATP) and test compounds in assay buffer (20 mM HEPES pH 7.2, 10 mM MgCl2, 0.015% Brij 35 and 4 mM DTT). The reaction was initiated by the combination of IRAK4 with substrates and test compounds. The reaction mixture was incubated at room temperature for 60 min. and terminated by adding 45 μL of 35 mM EDTA to each sample. The reaction mixture was analyzed on the Caliper LABCHIP® 3000 (Caliper, Hopkinton, MA) by electrophoretic separation of the fluorescent substrate and phosphorylated product. Inhibition data were calculated by comparison to no enzyme control reactions for 100% inhibition and vehicle-only reactions for 0% inhibition. The final concentrations of reagents in the assays are ATP, 500 μM; FL-IPTSPITTTYFFFKKK peptide 1.5 μM; IRAK4, 0.6 nM; and DMSO, 1.6%.

Sequence of IRAK4 (Q9NWZ3 whole entry, species assumed): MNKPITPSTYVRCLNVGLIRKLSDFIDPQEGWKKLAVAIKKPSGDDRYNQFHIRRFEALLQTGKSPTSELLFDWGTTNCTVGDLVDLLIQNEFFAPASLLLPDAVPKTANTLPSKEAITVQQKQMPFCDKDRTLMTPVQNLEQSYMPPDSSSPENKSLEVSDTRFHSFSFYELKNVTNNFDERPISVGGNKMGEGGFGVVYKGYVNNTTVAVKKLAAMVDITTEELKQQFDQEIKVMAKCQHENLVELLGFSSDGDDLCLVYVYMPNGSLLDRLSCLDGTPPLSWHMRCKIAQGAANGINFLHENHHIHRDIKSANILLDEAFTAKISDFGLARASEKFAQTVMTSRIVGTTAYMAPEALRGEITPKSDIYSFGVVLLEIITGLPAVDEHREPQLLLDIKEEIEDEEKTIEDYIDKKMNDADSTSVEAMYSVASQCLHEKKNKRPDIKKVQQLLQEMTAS

Row | SMILES | IC50 [nM]
1 | CC(C)(O)[C@H](F)CNC(=O)c1cnc2sc(-c3ccccc3)nc2c1NC1CC1 [Example 1, (R)-7-(cyclopropylamino)-N-(2-fluoro-3-hydroxy-3-methylbutyl)-2-phenylthiazolo[5,4-b]pyridine-6-carboxamide] | 39.5
2 | CC(C)Nc1c(C(=O)NC[C@@H](F)C(C)(C)O)cnc2sc(-c3ccccc3)nc12 [Example 2, (R)-N-(2-fluoro-3-hydroxy-3-methylbutyl)-7-(isopropylamino)-2-phenylthiazolo[5,4-b]pyridine-6-carboxamide] | 15.5
3 | CC(C)(O)[C@H](F)CNC(=O)c1cnc2sc(-c3ccccc3)nc2c1NC1CCCC1 [Example 3, (R)-7-(cyclopentylamino)-N-(2-fluoro-3-hydroxy-3-methylbutyl)-2-phenylthiazolo[5,4-b]pyridine-6-carboxamide] | 34
4 | CC(C)(O)[C@H](F)CNC(=O)c1cnc2sc(-c3ccccc3)nc2c1NC1CCOCC1 [Example 4, (R)-N-(2-fluoro-3-hydroxy-3-methylbutyl)-2-phenyl-7-((tetrahydro-2H-pyran-4-yl)amino)thiazolo[5,4-b]pyridine-6-carboxamide] | 7.9
5 | CCNc1c(C(=O)NC[C@@H](F)C(C)(C)O)cnc2sc(-c3ccccc3)nc12 [Example 5, (R)-7-(ethylamino)-N-(2-fluoro-3-hydroxy-3-methylbutyl)-2-phenylthiazolo[5,4-b]pyridine-6-carboxamide] | 46.2
6 | C[C@H](CO)Nc1c(C(=O)NC[C@@H](F)C(C)(C)O)cnc2sc(-c3ccccc3)nc12 [Example 6, N-((R)-2-fluoro-3-hydroxy-3-methylbutyl)-7-(((R)-1-hydroxypropan-2-yl)amino)-2-phenylthiazolo[5,4-b]pyridine-6-carboxamide] | 39.8
7 | C[C@H](CO)Nc1c(C(=O)NCCC(C)(C)O)cnc2sc(-c3ccccc3)nc12 [Example 7, (R)-N-(3-hydroxy-3-methylbutyl)-7-((1-hydroxypropan-2-yl)amino)-2-phenylthiazolo[5,4-b]pyridine-6-carboxamide] | 172
8 | C[C@H](CO)Nc1c(C(=O)NCCCN2CCOCC2)cnc2sc(-c3ccccc3)nc12 [Example 8, (R)-7-((1-hydroxypropan-2-yl)amino)-N-(3-morpholinopropyl)-2-phenylthiazolo[5,4-b]pyridine-6-carboxamide] | 474
9 | C[C@H](CO)Nc1c(C(=O)NCCC#N)cnc2sc(-c3ccccc3)nc12 [Example 9, (R)-N-(2-cyanoethyl)-7-((1-hydroxypropan-2-yl)amino)-2-phenylthiazolo[5,4-b]pyridine-6-carboxamide] | 440
10 | C[C@H](CO)Nc1c(C(=O)NCCS(C)(=O)=O)cnc2sc(-c3ccccc3)nc12 [Example 10, (R)-7-((1-hydroxypropan-2-yl)amino)-N-(2-(methylsulfonyl)ethyl)-2-phenylthiazolo[5,4-b] pyridine-6-carboxamide] | 734
11 | CC(C)Nc1c(C(=O)NC[C@@H](F)C(C)(C)O)cnc2sc(-c3cccnc3)nc12 [Example 11, (R)-N-(2-fluoro-3-hydroxy-3-methylbutyl)-7-(isopropylamino)-2-(pyridin-3-yl)thiazolo[5,4-b]pyridine-6-carboxamide] | 12
12 | CC(C)(O)CCNC(=O)c1cnc2sc(-c3cccnc3)nc2c1NC1CCOCC1 [Example 12, N-(3-hydroxy-3-methylbutyl)-2-(pyridin-3-yl)-7-((tetrahydro-2H-pyran-4-yl)amino) thiazolo[5,4-b]pyridine-6-carboxamide] | 168
13 | O=C(NCCN1CCC(O)CC1)c1cnc2sc(-c3cccnc3)nc2c1NC1CCOCC1 [Example 13, N-(2-(4-hydroxypiperidin-1-yl)ethyl)-2-(pyridin-3-yl)-7-((tetrahydro-2H-pyran-4-yl)amino)thiazolo[5,4-b]pyridine-6-carboxamide] | 517
14 | CC(C)(O)[C@H](F)CNC(=O)c1cnc2sc(-c3cccnc3)nc2c1NC1CCOCC1 [Example 14, (R)-N-(2-fluoro-3-hydroxy-3-methylbutyl)-2-(pyridin-3-yl)-7-((tetrahydro-2H-pyran-4-yl)amino)thiazolo[5,4-b]pyridine-6-carboxamide] | 39.9
15 | CC(C)Nc1c(C(=O)NC[C@@H](F)C(C)(C)O)cnc2sc(Nc3ccc(-n4cccn4)cc3)nc12 [Example 15, (R)-2-((4-(1H-pyrazol-1-yl)phenyl)amino)-N-(2-fluoro-3-hydroxy-3-methylbutyl)-7-(isopropylamino)thiazolo[5,4-b]pyridine-6-carboxamide] | 2380
16 | CC(C)Nc1c(C(=O)NC[C@@H](F)C(C)(C)O)cnc2sc(Nc3cccnc3)nc12 [Example 16, (R)-N-(2-fluoro-3-hydroxy-3-methylbutyl)-7-(isopropylamino)-2-(pyridin-3-ylamino)thiazolo[5,4-b]pyridine-6-carboxamide] | 124
17 | CC(C)Nc1c(C(=O)NC[C@@H](F)C(C)(C)O)cnc2sc(Nc3ccc(S(C)(=O)=O)cc3)nc12 [Example 17, (R)-N-(2-fluoro-3-hydroxy-3-methylbutyl)-7-(isopropylamino)-2-((4-(methylsulfonyl)phenyl)amino)thiazolo[5,4-b]pyridine-6-carboxamide] | 797
18 | CC(C)Nc1c(C(=O)NCCC(F)(F)F)cnc2sc(-c3cccnc3)nc12 [Example 18, 7-(isopropylamino)-2-(pyridin-3-yl)-N-(3,3,3-trifluoropropyl) thiazolo[5,4-b]pyridine-6-carboxamide] | 323
19 | CC(C)Nc1c(C(=O)NCCC2CC2)cnc2sc(-c3cccnc3)nc12 [Example 19, N-(2-cyclopropylethyl)-7-(isopropylamino)-2-(pyridin-3-yl)thiazolo[5,4-b]pyridine-6-carboxamide] | 72.6
20 | CC(=O)O[C@H]1CC[C@H](NC(=O)c2cnc3sc(-c4cccnc4)nc3c2NC(C)C)CC1 [Example 20, (1r,4r)-4-(7-(isopropylamino)-2-(pyridin-3-yl)thiazolo[5,4-b]pyridine-6-carboxamido)cyclohexyl acetate] | 12.3
21 | CC(C)Nc1c(C(=O)NC[C@@H](F)C(C)(C)O)cnc2sc(-c3ccc4nccn4c3)cc12 [Example 26, (R)-N-(2-fluoro-3-hydroxy-3-methylbutyl)-2-(imidazo[1,2-a]pyridin-6-yl)-4-(isopropylamino)thieno[2,3-b]pyridine-5-carboxamide] | 27.7
22 | CC(C)Nc1c(C(=O)NC[C@@H](F)C(C)(C)O)cnc2sc(-c3c[nH]c4ncc(F)cc34)cc12 [Example 28, (R)-2-(5-fluoro-1H-pyrrolo[2,3-b]pyridin-3-yl)-N-(2-fluoro-3-hydroxy-3-methylbutyl)-4-(isopropylamino)thieno[2,3-b]pyridine-5-carboxamide] | 75.6

Second part, the compound after the results:

Row | IC50 [nM] | SMILES
23 | 35.1 | CC(C)CCNC(=O)c1cnc2sc(-c3cccnc3)cc2c1NC(C)C [Example 31, N-isopentyl-4-(isopropylamino)-2-(pyridin-3-yl) thieno[2,3-b]pyridine-5-carboxamide]
24 | 29 | CC(C)CCNC(=O)c1cnc2sc(-c3ccnnc3)cc2c1NC(C)C [Example 33, N-isopentyl-4-(isopropylamino)-2-(pyridazin-4-yl)thieno[2,3-b]pyridine-5-carboxamide]
25 | 30 | COCCNC(=O)c1cnc2sc(-c3cncs3)cc2c1NC(C)C [Example 34, 4-(isopropylamino)-N-(2-methoxyethyl)-2-(thiazol-5-yl)thieno[2,3-b]pyridine-5-carboxamide]
26 | 59.7 | Cc1cc(CNC(=O)c2cnc3sc(-c4cncs4)cc3c2NC(C)C)on1 [Example 35, 4-(isopropylamino)-N-((3-methylisoxazol-5-yl)methyl)-2-(thiazol-5-yl)thieno[2,3-b]pyridine-5-carboxamide]
27 | 20.6 | CC(C)Nc1c(C(=O)N[C@H]2CC[C@H](O)CC2)cnc2sc(-c3cncs3)cc12 [Example 36, N-((1r,4r)-4-hydroxycyclohexyl)-4-(isopropylamino)-2-(thiazol-5-yl)thieno[2,3-b]pyridine-5-carboxamide]
28 | 384 | CC(C)Nc1c(C(=O)NCCC2(CO)CC2)cnc2sc(-c3cncs3)cc12 [Example 37, N-(2-(1-(hydroxymethyl)cyclopropyl)ethyl)-4-(isopropylamino)-2-(thiazol-5-yl)thieno[2,3-b]pyridine-5-carboxamide]
29 | 554 | CC(C)Nc1c(C(=O)NC(CCO)C2CC2)cnc2sc(-c3cncs3)cc12 (stereo not drawn) [Example 39, N-(1-cyclopropyl-3-hydroxypropyl)-4-(isopropylamino)-2-(thiazol-5-yl)thieno[2,3-b]pyridine-5-carboxamide]
30 | 126 | CC(C)Nc1c(C(=O)N[C@H](C)CCO)cnc2sc(-c3cncs3)cc12 [Example 40, (R)-N-(4-hydroxybutan-2-yl)-4-(isopropylamino)-2-(thiazol-5-yl)thieno[2,3-b]pyridine-5-carboxamide]
31 | 21.6 | CC(C)Nc1c(C(=O)NCc2cocn2)cnc2sc(-c3cncs3)cc12 [Example 41, 4-(isopropylamino)-N-(oxazol-4-ylmethyl)-2-(thiazol-5-yl) thieno[2,3-b]pyridine-5-carboxamide]
32 | 3.7 | CC(=O)N[C@H]1CC[C@H](NC(=O)c2cnc3sc(-c4cncs4)cc3c2NC(C)C)CC1 [Example 45, N-((1r,4r)-4-acetamidocyclohexyl)-4-(isopropylamino)-2-(thiazol-5-yl)thieno[2,3-b]pyridine-5-carboxamide]
33 | 272 | CC(C)Nc1c(C(=O)NCC(C)(C)CO)cnc2sc(-c3cncs3)cc12 [Example 46, N-(3-hydroxy-2,2-dimethylpropyl)-4-(isopropylamino)-2-(thiazol-5-yl)thieno[2,3-b]pyridine-5-carboxamide]
